Results taken from US5393743A, “Erythromycin derivatives” (Abbott Laboratories, priority 1993, dated 1995).

Tests used:
[1] = tested on: Nocardia asteroides ATCC 9970; assay: microbe, parasite or virus in culture; conditions: ATCC9970
Description: (§1) Representative compounds of the present invention were assayed in vitro for antibacterial activity as follows: Twelve petri dishes containing successive aqueous dilutions of the test compound mixed with 10 mL of sterilized Brain Heart Infusion (BHI) agar (Difco 0418-01-5) were prepared. Each plate was inoculated with 1:100 (or 1:10 for slow-growing strains, such as Micrococcus and Streptococcus) dilutions of up to 32 different microorganisms, using a Steers replicator block. The inoculated plates were incubated 35°-37° C. for 20 to 24 hours. In addition, a control plate, using BHI agar containing no test compound, was prepared and incubated at the beginning and end of each test.
(§2) An additional plate containing a compound having known susceptibility patterns for the organisms being tested and belonging to the same antibiotic class as the test compound was also prepared and incubated as a further control, as well as to provide test-to-test comparability. Erythromycin A was used for this purpose.
(§3) After incubation, each disk was read. The minimum inhibitory concentration (MIC) was defined as the lowest concentration of drug yielding no growth, a slight haze, or sparsely isolated colonies on the inoculum spot as compared to the growth control.

Escherichia coli SS = assay: microbe, parasite or virus in culture; conditions: Escherichia coli
Description: as §1, §2, §3

Candida albicans CCH 442 = assay: microbe, parasite or virus in culture; conditions: CCH442
Description: as §1, §2, §3

[2] = tested on: Micrococcus luteus ATCC 9341; assay: microbe, parasite or virus in culture; conditions: Micrococcus luteus, ATCC9341
Description: as §1, §2, §3

[3] = tested on: Pseudomonas aeruginosa K799/61; assay: In vitro antibacterial activity, agar dilution MIC; format: cell-based; conditions: BHI agar, 35°-37° C., 20 to 24 hours, read-out: MIC
[4] = tested on: Mycobacterium smegmatis ATCC 114; assay: In vitro antibacterial activity, agar dilution MIC; format: cell-based; conditions: Mycolicibacterium smegmatis, ATCC114, BHI agar, 35°-37° C., 20 to 24 hours
[5] = tested on: Streptococcus pyogenes 2548 induc; assay: In vitro antibacterial activity, agar dilution MIC; format: cell-based; conditions: Streptococcus pyogenes, 2548INDUC
Description: as §1, §2, §3

[6] = tested on: Enterobacter aerogenes ATCC 13048; assay: In vitro antibacterial activity, agar dilution MIC; format: cell-based; conditions: Klebsiella aerogenes, ATCC13048; Enterobacter aerogenes ATCC 13048; BHI agar, 35°-37° C., 20 to 24 hours; read-out: MIC
Description: as §1, §2, §3

[7] = tested on: Klebsiella pneumoniae ATCC 8045; assay: In vitro antibacterial activity, agar dilution MIC; format: cell-based; conditions: ATCC8045; Klebsiella pneumoniae ATCC 8045; BHI agar, 35°-37° C., 20 to 24 hours; read-out: MIC
Description: as §1, §2, §3

[8] = tested on: Pseudomonas aeruginosa 5263; assay: In vitro antibacterial activity, agar dilution MIC; format: cell-based; conditions: Pseudomonas aeruginosa 5263; BHI agar, 35°-37° C., 20 to 24 hours; read-out: MIC
Description: as §1, §2, §3

[9] = tested on: Staphylococcus aureus A5177; assay: In vitro antibacterial activity, agar dilution MIC; format: cell-based; conditions: Staphylococcus aureus A5177; BHI agar, 35°-37° C., 20 to 24 hours; read-out: MIC
Description: as §1, §2, §3

[10] = tested on: Streptococcus pyogenes EES61; assay: In vitro antibacterial activity, agar dilution MIC; format: cell-based; conditions: Streptococcus pyogenes, EES61
Description: as §1, §2, §3

[11] = tested on: Providencia stuartii CMX 640; assay: In vitro antibacterial activity, agar dilution MIC; format: cell-based; conditions: CMX640; Providencia stuartii CMX 640; BHI agar, 35°-37° C., 20 to 24 hours; read-out: MIC
Description: as §1, §2, §3

[12] = tested on: Acinetobacter calcoaceticus CMX 669; assay: In vitro antibacterial activity, agar dilution MIC; format: cell-based; conditions: CMX669; Acinetobacter calcoaceticus CMX 669; BHI agar, 35°-37° C., 20 to 24 hours; read-out: MIC
Description: as §1, §2, §3

[13] = tested on: Pseudomonas aeruginosa A5007; assay: In vitro antibacterial activity, agar dilution MIC; format: cell-based; conditions: Pseudomonas aeruginosa A5007; BHI agar, 35°-37° C., 20 to 24 hours; read-out: MIC
Description: as §1, §2, §3

[14] = tested on: Pseudomonas aeruginosa 2862; assay: In vitro antibacterial activity, agar dilution MIC; format: cell-based; conditions: Pseudomonas aeruginosa 2862; BHI agar, 35°-37° C., 20 to 24 hours; read-out: MIC
Description: as §1, §2, §3

Pseudomonas cepacia 2961 = assay: In vitro antibacterial activity, agar dilution MIC; format: cell-based; conditions: Burkholderia cepacia; Pseudomonas cepacia 2961; BHI agar, 35°-37° C., 20 to 24 hours; read-out: MIC
Description: as §1, §2, §3

[15] = tested on: Staphylococcus aureus 1775 Cipro R; assay: In vitro antibacterial activity, agar dilution MIC; format: cell-based; conditions: 1775CIPROR; Staphylococcus aureus 1775 Cipro R; BHI agar, 35°-37° C., 20 to 24 hours; read-out: MIC
Description: as §1, §2, §3

Escherichia coli Juhl = assay: In vitro antibacterial activity, agar dilution MIC; format: cell-based; conditions: Escherichia coli Juhl; BHI agar, 35°-37° C., 20 to 24 hours; read-out: MIC
Description: as §1, §2, §3

[16] = tested on: Staphylococcus aureus ATCC 6538P; assay: In vitro antibacterial activity, agar dilution MIC; format: cell-based; conditions: Staphylococcus aureus, ATCC6538P
Description: as §1, §2, §3

[17] = tested on: Staphylococcus epidermidis 3519; assay: In vitro antibacterial activity, agar dilution MIC; format: cell-based; conditions: Staphylococcus epidermidis, 3519
Description: as §1, §2, §3

[18] = tested on: Streptococcus pyogenes 930 const; assay: In vitro antibacterial activity, agar dilution MIC; format: cell-based; conditions: Streptococcus pyogenes 930 const; BHI agar, 35°-37° C., 20 to 24 hours; read-out: MIC
Description: as §1, §2, §3

[19] = tested on: Pseudomonas aeruginosa K799/WT; assay: In vitro antibacterial activity, agar dilution MIC; format: cell-based; conditions: Pseudomonas aeruginosa K799/WT; BHI agar, 35°-37° C., 20 to 24 hours; read-out: MIC
Description: as §1, §2, §3

[20] = tested on: Staphylococcus aureus CMX 642a; assay: In vitro antibacterial activity, agar dilution MIC; format: cell-based; conditions: Staphylococcus aureus, CMX642A
Description: as §1, §2, §3

[21] = tested on: Staphylococcus aureus NCTC 10649; assay: In vitro antibacterial activity, agar dilution MIC; format: cell-based; conditions: Staphylococcus aureus, NCTC10649
Description: as §1, §2, §3

[22] = tested on: Pseudomonas aeruginosa BMH10; assay: In vitro antibacterial activity, agar dilution MIC; format: cell-based; conditions: Pseudomonas aeruginosa BMH10; BHI agar, 35°-37° C., 20 to 24 hours; read-out: MIC
Description: as §1, §2, §3

Micrococcus luteus 4698 = assay: In vitro antibacterial activity, agar dilution MIC; format: cell-based; conditions: Micrococcus luteus, 4698
Description: as §1, §2, §3

[23] = tested on: Staphylococcus aureus A5278; assay: In vitro antibacterial activity, agar dilution MIC; format: cell-based; conditions: Staphylococcus aureus A5278; BHI agar, 35°-37° C., 20 to 24 hours; read-out: MIC
Description: as §1, §2, §3

[24] = tested on: Enterococcus faecium ATCC 8043; assay: In vitro antibacterial activity, agar dilution MIC; format: cell-based; conditions: Enterococcus faecium, ATCC8043
Description: as §1, §2, §3

[25] = tested on: Streptococcus agalactiae 508; assay: In vitro antibacterial activity, agar dilution MIC; format: cell-based; conditions: Streptococcus agalactiae, 508
Description: as §1, §2, §3

Escherichia coli KNK 437 = assay: In vitro antibacterial activity, agar dilution MIC; format: cell-based; conditions: KNK437; Escherichia coli KNK 437; BHI agar, 35°-37° C., 20 to 24 hours; read-out: MIC
Description: as §1, §2, §3

[26] = tested on: Staphylococcus aureus CMX 553; assay: In vitro antibacterial activity, agar dilution MIC; format: cell-based; conditions: Staphylococcus aureus, CMX553
Description: as §1, §2, §3

Escherichia coli H560 = assay: In vitro antibacterial activity, agar dilution MIC; format: cell-based; conditions: Escherichia coli H560; BHI agar, 35°-37° C., 20 to 24 hours; read-out: MIC
Description: as §1, §2, §3

Escherichia coli DC-2 = assay: In vitro antibacterial activity, agar dilution MIC; format: cell-based; conditions: DC2; Escherichia coli DC-2; BHI agar, 35°-37° C., 20 to 24 hours; read-out: MIC
Description: as §1, §2, §3

[27] = tested on: Streptococcus bovis A5169; assay: In vitro antibacterial activity, agar dilution MIC; format: cell-based; conditions: Streptococcus equinus, A5169
Description: as §1, §2, §3

Measured: MIC

CC[C@H]1OC(=O)[C@H](C)[C@@H](O[C@H]2C[C@](C)(F)[C@@H](OC)[C@H](C)O2)[C@H](C)[C@@H](O[C@@H]2O[C@H](C)C[C@H](N(C)C)[C@H]2O)[C@](C)(O)C[C@@H](C)C(=O)[C@H](C)[C@@H](O)[C@]1(C)O [Example 9, (3"s)--3"-Desmethoxy-3"-fluoro-4"-O-methylerythromycin A]
0.39 µg/mL: [10] | Micrococcus luteus 4698 | [24] | [25]
1.56 µg/mL: Escherichia coli SS | [16] | [17] | [20] | [21] | [26]
0.2 µg/mL: [1] | [2] | [27]
50 µg/mL: [3]
3.1 µg/mL: [5]
12.5 µg/mL: [4] | [9]
> 100 µg/mL: all other assays above
